From patent US12310364B2, “Safened compositions comprising pyridine carboxylate herbicides and cloquintocet” (Corteva Agriscience LLC, priority 2018, dated 2025)
“And” between values parts separate entries of the source, which are not always exact repeats. Equal entries are not always repeated.

Columns and labels:
Type in all cases: in vivo
[1] = system: Hordeum vulgare (spring barley), HORVS; experiment: Greenhouse postemergence safening trial, visual injury on spring barley
Experimental: (§1) Greenhouse Trial Methodology-Evaluation of Postemergence Herbicidal […] in Crops […] When required to ensure good germination and healthy plants, a fungicide treatment and/or other chemical or physical treatment was applied. The plants were grown for 7-36 days (d) in a greenhouse with an approximate 14-hour (h) photoperiod which was maintained at about 23° C. during the day and 22° C. during the night. Nutrients and water were added on a regular basis and supplemental lighting was provided with overhead metal halide 1000-Watt lamps as necessary. The plants were employed for testing when they reached the second or third true leaf stage. Emulsifiable concentrates of each of each pyridine carboxylate herbicide (Compound A or Compound B) were prepared at 100 grams acid equivalent per liter (g ae/L). […] The concentrated stock solutions were further diluted with an aqueous mixture of 1.25% […] or MSO® Concentrate with LECI-TECH® to obtain stock solutions at reduced application rates for each herbicide. Spray solutions of the herbicide combinations (Compound A or Compound B plus safener) were prepared by adding weighed amounts or aliquots of the safener to the stock solutions of Compound A or Compound B to form 12-mL spray solutions in two-way combinations. […] Control plants were sprayed in the same manner with the solvent blank. All herbicide (component a) application rates are given as “g ae/ha” and all safener (component b) application rates are given as “g ai/ha.” The treated plants and control plants were placed in a greenhouse as described above and watered by sub-irrigation to prevent wash-off of the test compounds.

[2] = system: Hordeum vulgare (winter barley), HORVW; experiment: Greenhouse postemergence safening trial, visual injury on winter barley
Experimental: as §1

[3] = system: Matricaria inodora (false chamomile), MATIN; experiment: Greenhouse postemergence trial, visual injury on false chamomile
Excerpt: (§2) Greenhouse Trial Methodology—Evaluation of Postemergence Herbicidal Safening in Crops
(§3) Seeds of the desired test plant species were planted in a 90:10% v/v (volume/volume) mixture of PRO-MIX® BX (Premier Tech Horticulture, Quakertown, PA, USA) and PROFILE® GREENS GRADE™ (Profile Products LLC, Buffalo Grove, IL, USA) planting mixture, which typically has a pH of 5.2 to 6.2 and an organic matter content of at least 50 percent, in plastic pots with a surface area of 103.2 square centimeters (cm^2). When required to ensure good germination and healthy plants, a fungicide treatment and/or other chemical or physical treatment was applied. The plants were grown for 7-36 days (d) in a greenhouse with an approximate 14-hour (h) photoperiod which was maintained at about 23° C. during the day and 22° C. during the night. Nutrients and water were added on a regular basis and supplemental lighting was provided with overhead metal halide 1000-Watt lamps as necessary. The plants were employed for testing when they reached the second or third true leaf stage.
(§4) Emulsifiable concentrates of each of each pyridine carboxylate herbicide (Compound A or Compound B) were prepared at 100 grams acid equivalent per liter (g ae/L). An aliquot of each emulsifiable concentrate was placed in a 25 mL glass vial and diluted with an aqueous mixture of 1.25% (v/v) ACTIROB® B esterified rapeseed oil (Bayer Crop Science, Research Triangle Park, NC, USA) or MSO® Concentrate with LECI-TECH® methylated soybean oil (Loveland Products, Loveland, CO, USA) to obtain concentrated stock solutions at the highest application rate for each herbicide, based upon a 12 milliliter (mL) application volume at a rate of 187 liters per hectare (L/ha). The concentrated stock solutions were further diluted with an aqueous mixture of 1.25% v/v ACTIROB® B or MSO® Concentrate with LECI-TECH® to obtain stock solutions at reduced application rates for each herbicide. Spray solutions of the herbicide combinations (Compound A or Compound B plus safener) were prepared by adding weighed amounts or aliquots of the safener to the stock solutions of Compound A or Compound B to form 12-mL spray solutions in two-way combinations.
(§5) The spray solutions were applied to the plant material with an overhead Mandel track sprayer equipped with 8002E nozzles calibrated to deliver 187 L/ha over an application area of 0.503 square meters (m^2) at a spray height of 18 inches (43 centimeters (cm)) above the average plant canopy. Control plants were sprayed in the same manner with the solvent blank. All herbicide (component a) application rates are given as “g ae/ha” and all safener (component b) application rates are given as “g ai/ha.”
(§6) The treated plants and control plants were placed in a greenhouse as described above and watered by sub-irrigation to prevent wash-off of the test compounds. After 20-22 d, the condition of the test plants as compared with that of the control plants was determined visually and scored on a scale of 0 to 100 percent where 0 corresponds to no injury and 100 corresponds to complete kill.

[4] = system: Brassica napus (winter rape), BRSNW; experiment: Greenhouse postemergence trial, visual injury on winter rape
Experimental: as §1

maize (ZEAMX) = experiment: Greenhouse postemergence safening trial, visual injury on maize
Excerpt: as §2, §3, §4, §5, §6

[5] = system: nutsedge (CYPES, Cyperus esculentus); experiment: Greenhouse postemergence trial, visual injury on nutsedge
Excerpt: as §2, §3, §4, §5, §6

[6] = system: common lambsquarters (CHEAL, Chenopodium album L.); experiment: Greenhouse postemergence trial, visual injury on common lambsquarters; details: Table 19
Excerpt: as §2, §3
as §4, with “combinations. […]” for “combinations.”
as §6

[7] = system: barnyardgrass (ECHCG, Echinochloa crus-galli); experiment: Greenhouse postemergence trial, visual injury on barnyardgrass; details: Table 19
Excerpt: as §2, §3
as §4, with “combinations. […]” for “combinations.”
as §6

[8] = system: Chinese sprangletop (LEFCH, Leptochloa chinensis); experiment: Greenhouse postemergence trial, visual injury on Chinese sprangletop; details: Table 19
Excerpt: as §2, §3
as §4, with “combinations. […]” for “combinations.”
as §6

[9] = system: giant foxtail (SETFA, Setaria faberi); experiment: Greenhouse postemergence trial, visual injury on giant foxtail; details: Table 19
Excerpt: as §2, §3
as §4, with “combinations. […]” for “combinations.”
as §6

[10] = CQC-mexyl 5 g/ha alone, Table 15
[11] = CQC-mexyl 10 g/ha alone, Table 15
[12] = CQC-mexyl 10 g/ha alone, Table 16
[13] = CQC-mexyl 20 g/ha alone, Table 15
[14] = CQC-mexyl 20 g/ha alone, Table 16
[15] = CQC-mexyl 40 g/ha alone, Table 14
[16] = CQC-mexyl 40 g/ha alone, Table 15
[17] = CQC-mexyl 40 g/ha alone, Table 16
[18] = CQC-mexyl 80 g/ha alone, Table 16
[19] = CQC-mexyl 20 g/ha alone, Table 19
[20] = CQC-mexyl 40 g/ha alone, Table 19
[21] = CQC-mexyl 80 g/ha alone, Table 19
[22] = CQC-mexyl 20 g/ha alone, Table 17
[23] = CQC-mexyl 40 g/ha alone, Table 17
[24] = CQC-mexyl 80 g/ha alone, Table 17
[25] = CQC-mexyl 120 g/ha alone, Table 17
[26] = Compound A 20 g/ha alone, Table 15
[27] = Compound A 40 g/ha alone, Table 14
[28] = Compound A 40 g/ha alone, Table 16
[29] = Compound A 20 g/ha alone, Table 19
[30] = Compound A 40 g/ha alone, Table 17
[31] = Compound A 40 g/ha alone, Table 18

CCCCCC(C)OC(=O)COc1ccc(Cl)c2cccnc12 (stereo not shown) [CQC-mexyl, cloquintocet-mexyl]
0%: % visual injury, Ob [1, 10] | % visual injury, Ob [1, 11] | % visual injury, Ob [1, 12] | % visual injury, Ob [1, 13] | % visual injury, Ob [1, 14] | % visual injury, Ob [1, 15] | % visual injury, Ob [1, 16] | % visual injury, Ob [1, 17] | % visual injury, Ob [1, 18] | % visual injury, Ob ([1]; safener alone 5 g/ha) | % visual injury, Ob ([1]; safener alone 10 g/ha) | % visual injury, Ob ([1]; safener alone 20 g/ha) | % visual injury, Ob ([1]; safener alone 40 g/ha) | % visual injury, Ob [2, 10] | % visual injury, Ob [2, 11] | % visual injury, Ob [2, 12] | % visual injury, Ob [2, 13] | % visual injury, Ob [2, 14] | % visual injury Δ [2, 15] | % visual injury, Ob [2, 15] | % visual injury, Ob [2, 16] | % visual injury, Ob [2, 17] | % visual injury, Ob [2, 18] | % visual injury Δ ([2]; safener alone 40 g/ha) | % visual injury, Ob ([2]; safener alone 40 g/ha) | % visual injury, Ob [3, 12] | % visual injury, Ob [3, 14] | % visual injury, Ob [3, 17] | % visual injury, Ob [3, 18] | % visual injury, Ob [4, 10] | % visual injury, Ob [4, 11] | % visual injury, Ob [4, 13] | % visual injury, Ob [4, 19] | % visual injury, Ob [4, 16] | % visual injury, Ob [4, 20] | % visual injury, Ob [4, 21] | % visual injury, Ob ([4]; safener alone 5 g/ha) | % visual injury, Ob ([4]; safener alone 10 g/ha) | % visual injury, Ob ([4]; safener alone 20 g/ha) | % visual injury, Ob ([4]; safener alone 40 g/ha) | % visual injury, Ob (maize (ZEAMX); [22]) | % visual injury, Ob (maize (ZEAMX); [19]) | % visual injury, Ob (maize (ZEAMX); [23]) | % visual injury, Ob (maize (ZEAMX); [20]) | % visual injury, Ob (maize (ZEAMX); [24]) | % visual injury, Ob (maize (ZEAMX); [21]) | % visual injury, Ob (maize (ZEAMX); [25]) | % visual injury, Ob [5, 22] | % visual injury, Ob [5, 19] | % visual injury, Ob [5, 23] | % visual injury, Ob [5, 20] | % visual injury, Ob [5, 24] | % visual injury, Ob [5, 21] | % visual injury, Ob [5, 25] | % visual injury, Ob ([6]; CQC-mexyl 20 g/ha alone) | % visual injury, Ob ([6]; CQC-mexyl 40 g/ha alone) | % visual injury, Ob ([6]; CQC-mexyl 80 g/ha alone) | % visual injury, Ob ([7]; CQC-mexyl 20 g/ha alone) | % visual injury, Ob ([7]; CQC-mexyl 40 g/ha alone) | % visual injury, Ob ([7]; CQC-mexyl 80 g/ha alone) | % visual injury, Ob ([8]; CQC-mexyl 20 g/ha alone) | % visual injury, Ob ([8]; CQC-mexyl 40 g/ha alone) | % visual injury, Ob ([8]; CQC-mexyl 80 g/ha alone) | % visual injury, Ob ([9]; CQC-mexyl 20 g/ha alone) | % visual injury, Ob ([9]; CQC-mexyl 40 g/ha alone) | % visual injury, Ob ([9]; CQC-mexyl 80 g/ha alone)

N#CCOC(=O)c1nc(-c2ccc3cc[nH]c3c2F)c(F)c(N)c1Cl [Compound A, cyanomethyl 4-amino-3-chloro-5-fluoro-6-(7-fluoro-1H-indol-6-yl)pyridine-2-carboxylate]
65%: % visual injury, Ob ([9]; Compound A 20 g/ha alone)
40%: % visual injury, Ob [1, 28] | % visual injury, Ob [2, 27]
15%: % visual injury, Ob [2, 26] | % visual injury, Ob ([2]; herbicide alone 20 g/ha)
60%: % visual injury, Ob ([8]; Compound A 20 g/ha alone)
88%: % visual injury, Ob ([6]; Compound A 20 g/ha alone)
70%: % visual injury, Ob [4, 26]
70% and 95%: % visual injury, Ob ([4]; herbicide alone 20 g/ha)
100%: % visual injury, Ob [3, 28] | % visual injury, Ob ([3]; herbicide alone 40 g/ha)
0%: % visual injury Δ [2, 27] | % visual injury Δ ([2]; herbicide alone 40 g/ha)
40% and 30%: % visual injury, Ob ([2]; herbicide alone 40 g/ha)
30%: % visual injury, Ob [2, 28] | % visual injury, Ob [5, 29]
20%: % visual injury, Ob [1, 26] | % visual injury, Ob [1, 27]
73%: % visual injury, Ob [5, 30] | % visual injury, Ob [5, 31]
55%: % visual injury, Ob (maize (ZEAMX); [30]) | % visual injury, Ob (maize (ZEAMX); [31])
85%: % visual injury, Ob [4, 29] | % visual injury, Ob ([7]; Compound A 20 g/ha alone)
13%: % visual injury, Ob (maize (ZEAMX); [29])
